Where only a bound is given, the exact number is not on record here.

Test [1] has as its target T1, Human BACE1 (Homo sapiens, UniProt P56817).
T1 construct: the soluble part of the human β-Secretase1 (AA1-AA460) was cloned using the BACE1(1-460)-(AVT)-Fc-pGEN-IRES-neo mammalian expression vector; AVT linker (C); made in house
The test is described as follows: Diluted TR-FRET assay. To be noted: 50 times less enzyme, 6.5 h reaction time at r.t.; read-out: IC50 BACE1 (dil. TR-FRET). In kind it is biochemical. How it is done: The β-secretase enzyme used in the TR-FRET was prepared as follows:
Human BACE1: the cDNA for the soluble part of the human β-Secretase1 (AA1-AA460) was cloned using the BACE1(1-460)-(AVT)-Fc-pGEN-IRES-neo mammalian expression vector. The gene was fused to the Fe domain of IgG1 (affinity tag) and stably cloned into HEK 293 cells. […]
A multidrop Combi was used for the liquid handling. Enzyme (7 μL) was added to the compound plate (containing 0.8 μL of compound in dimethylsulphoxide). The plate was incubated for 10 minutes. […] The reaction was stopped with the addition of Stop solution (5.5 μL, NaOAC, pH 9). Fluorescence was measured on a Pherastar plate reader using HTRF module. […] 5 reference inhibitors with different affinities were used at all screen occasions in dose response.
A general note: Time-resolved FRET reads energy transfer from a long-lived donor to a nearby acceptor.

In test [2] the target is T2, Human BACE2 (Homo sapiens, UniProt Q9Y5Z0).
T2 construct: the soluble part of the human β-Secretase2 (AA1-AA473) was cloned using BACE2(1-473)-(AVT)-Fc-pDEST12.2 mammalian expression vector; AVT linker (C); made in house
T2 sequence (Q9Y5Z0 21-473): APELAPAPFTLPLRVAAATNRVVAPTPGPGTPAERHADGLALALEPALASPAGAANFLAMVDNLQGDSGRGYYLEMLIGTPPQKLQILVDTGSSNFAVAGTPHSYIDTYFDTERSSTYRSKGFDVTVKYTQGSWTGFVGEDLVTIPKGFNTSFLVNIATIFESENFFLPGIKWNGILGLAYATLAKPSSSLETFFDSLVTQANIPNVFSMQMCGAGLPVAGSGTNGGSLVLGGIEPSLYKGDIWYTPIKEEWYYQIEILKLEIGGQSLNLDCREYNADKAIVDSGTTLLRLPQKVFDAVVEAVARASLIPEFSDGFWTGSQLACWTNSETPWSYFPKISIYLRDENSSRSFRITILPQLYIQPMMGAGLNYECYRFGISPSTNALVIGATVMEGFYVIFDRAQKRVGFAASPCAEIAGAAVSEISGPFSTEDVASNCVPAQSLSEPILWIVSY
Nature of the test: TR-FRET assay. The class given is biochemical. Conditions: enzyme 2.7 μg/mL, substrate 100 nM, pH4.5.

For test [3], the system named is SH-SY5Y cells. The test is described as follows: sAPPβ release assay. To be noted: Homo sapiens, SH-SY5Y, read-out: IC50 Cell (sAPPβ release, nM), SH-SY5Y cells, compounds incubated 16-17 h.
Experimental: Cells were thawed and seeded at a concentration of around 10000 cells/well in DMEM/F-12 with Glutamax, 10% FCS and 1% non-essential amino acids to a 384-well tissue culture treated plate, 30 μL cell susp/well. The cell plates were then incubated for 7-24 h at 37° C., 5% CO2.
The cell medium was removed, followed by addition of 50 μL compound diluted in DMEM/F-12 with Glutamax, 10% FCS, 1% non-essential amino acids to a final cone of 0.5% DMSO. The compounds were incubated with the cells for 16-17 h (overnight) at 37° C., 5% CO2.
Meso Scale Discovery (MSD) plates were used for the detection of sAPP release. MSD sAPPβ plates were blocked in 1% BSA in Tris wash buffer for 1 h on shake at r.t. and washed 1 time in Tris wash buffer. […] The MSD plates were incubated with shaking at r.t. for 2 h and the media discarded. 10 μL detection antibody was added (1 nM) per well followed by incubation with shaking at r.t. for 2 h and then discarded. 35 μL Read Buffer was added per well and the plates were read in a Meso Scale Discovery SECTOR6000 Imager.

T1 sequence (P56817 22-460): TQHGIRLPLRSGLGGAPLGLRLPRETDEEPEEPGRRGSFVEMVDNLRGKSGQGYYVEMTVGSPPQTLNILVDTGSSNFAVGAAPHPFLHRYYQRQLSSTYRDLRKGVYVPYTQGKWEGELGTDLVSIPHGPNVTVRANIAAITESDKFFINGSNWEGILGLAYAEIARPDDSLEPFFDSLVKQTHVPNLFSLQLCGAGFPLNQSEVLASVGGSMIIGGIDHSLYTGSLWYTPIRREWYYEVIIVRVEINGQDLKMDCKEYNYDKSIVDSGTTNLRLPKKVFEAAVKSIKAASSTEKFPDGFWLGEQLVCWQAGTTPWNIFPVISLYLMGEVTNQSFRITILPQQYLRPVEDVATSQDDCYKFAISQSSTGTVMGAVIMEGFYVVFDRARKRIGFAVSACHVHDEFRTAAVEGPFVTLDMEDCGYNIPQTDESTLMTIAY

Usually IC50 stands for the point on the concentration scale where inhibition reaches its midpoint. In the case of `[2H]C1([2H])OC(N)=NC12c1cc(OCCC(F)(F)F)ccc1C[C@]21CC[C@@H](OC)CC1` (stereo partly drawn) [Compound 45, (1r,4r)-4-methoxy-6′-(3,3,3-trifluoropropoxy)-3′H,5″H-dispiro[cyclohexane-1,2′-indene-1′,4″-oxazol]-5″,5″-d2-2″-amine], the IC50 in test [1] is 289 nM; in test [2] it was 589 nM; in test [3] it was 7.8 nM.
As to `CO[C@H]1CC[C@]2(CC1)Cc1ccc(-c3cncc(C#N)c3)cc1C21COC(N)=N1` (stereo partly drawn) [Compound 46, 5-((1r,4r)-2″-amino-4-methoxy-3′H,5″H-dispiro[cyclohexane-1,2′-indene-1′,4″-oxazol]-6′-yl)nicotinonitrile], the IC50 in test [1] amounted to 219 nM; in test [2], 300 nM; in test [3], 8.8 nM.
Turning to `[2H]C1([2H])OC(N)=NC12c1cc(-c3cc(C#N)cc(OC)c3)ccc1C[C@@]21CC[C@H](O)[C@@H](C)C1` (stereo partly drawn) [Compound 49, 3-((1S,3S,4S)-2″-amino-4-hydroxy-3-methyl-3′H,5″H-dispiro[cyclohexane-1,2′-indene-1′,4″-oxazol]-6′-yl-5″,5″-d2)-5-methoxybenzonitrile], the values for the IC50 in test [1], in test [2] and in test [3] were 166 nM, 69 nM and 15.8 nM, respectively.
As for `CO[C@H]1CC[C@]2(CC1)Cc1ccc(CCC(C)C)cc1C21COC(N)=N1` (stereo partly drawn) [Compound 51, (1r,4r)-6′-isopentyl-4-methoxy-3′H,5″H-dispiro[cyclohexane-1,2′-indene-1′,4″-oxazol]-2″-amine], the IC50 in test [1] turned out to be 188 nM; in test [2], 306 nM; in test [3] it was 20.6 nM.
Taken in the same sequence, the figures for `[2H]C1([2H])OC(N)=NC12c1cc(/C=N/OCCC)ccc1C[C@]21CC[C@@H](OC)CC1` (stereo partly drawn) [Compound 53, (E)-2″-amino-4-methoxy-3′H,5″H-dispiro[cyclohexane-1,2′-indene-1′,4″-oxazole]-5″,5″-d2-6′-carbaldehyde O-propyl oxime] were 665 nM, 652 nM and 24.8 nM.
As to `[2H]C1([2H])OC(N)=NC12c1cc(/C=N/OCC)ccc1C[C@]21CC[C@@H](OC)CC1` (stereo partly drawn) [Compound 56, (E)-2″-amino-4-methoxy-3′H,5″H-dispiro[cyclohexane-1,2′-indene-1′,4″-oxazole]-5″,5″-d2-6′-carbaldehyde O-ethyl oxime], the IC50 was 1630 nM in test [1], 3240 nM in test [2] and 57 nM in test [3].
In the same order, the values of `[2H]C1([2H])OC(N)=NC12c1cc(-c3cncnc3)ccc1C[C@]21CC[C@@H](O)[C@H](C)C1` (stereo partly drawn) [Compound 57, (1R,3R,4R)-2″-amino-3-methyl-6′-(pyrimidin-5-yl)-3′H,5″H-dispiro[cyclohexane-1,2′-indene-1′,4″-oxazol]-5″,5″-d2-4-ol] are 341 nM, greater than 5000 nM and 94.8 nM.
Turning to `[2H]C1([2H])OC(N)=NC12c1cc(-c3cc(C#N)cc(OC)c3)ccc1C[C@]21CC[C@@H](O)[C@H](C)C1` (stereo partly drawn) [Compound 58, 3-((1R,3R,4R)-2″-amino-4-hydroxy-3-methyl-3′H,5″H-dispiro[cyclohexane-1,2′-indene-1′,4″-oxazol]-6′-yl-5″,5″-d2)-5-methoxybenzonitrile], the results for the IC50 in test [1], in test [2] and in test [3] were 301 nM, 139 nM and 102 nM, respectively.
Turning to `CO[C@H]1CC[C@]2(CC1)Cc1ccc(-c3cccnn3)cc1C21COC(N)=N1` (stereo partly drawn) [Compound 59, (1r,4r)-4-methoxy-6′-(pyridazin-3-yl)-3′H,5″H-dispiro[cyclohexane-1,2′-indene-1′,4″-oxazol]-2″-amine], the IC50 was 2250 nM in test [1], 4990 nM in test [2] and 128 nM in test [3].
For `[2H]C1([2H])OC(N)=NC12c1cc(/C(C)=N/OCCC(F)(F)F)ccc1C[C@]21CC[C@@H](OC)CC1` (stereo partly drawn) [Compound 60, (E)-1-((1r,4r)-2″-amino-4-methoxy-3′H,5″H-dispiro[cyclohexane-1,2′-indene-1′,4″-oxazol]-6′-yl-5″,5″-d2)ethan-1-one O-(3,3,3-trifluoropropyl)oxime], the IC50 is greater than 5000 nM in test [1], greater than 5000 nM in test [2] and 206 nM in test [3].
On to `[2H]C1([2H])OC(N)=NC12c1cc(/C=N/OC3CCC3)ccc1C[C@]21CC[C@@H](OC)CC1` (stereo partly drawn) [Compound 61, (E)-2″-amino-4-methoxy-3′H,5″H-dispiro[cyclohexane-1,2′-indene-1′,4″-oxazole]-5″,5″-d2-6′-carbaldehyde O-cyclobutyl oxime], for which the IC50 in test [1] worked out at 1960 nM; in test [2], 3440 nM; in test [3], 207 nM.
In the same order, the values of `CO[C@H]1CC[C@]2(CC1)Cc1ccc(-c3ccnnc3)cc1C21COC(N)=N1` (stereo partly drawn) [Compound 62, (1r,4r)-4-methoxy-6′-(pyridazin-4-yl)-3′H,5″H-dispiro[cyclohexane-1,2′-indene-1′,4″-oxazol]-2″-amine] are greater than 5000 nM, greater than 5000 nM and 250 nM.
On to `[2H]C1([2H])OC(N)=NC12c1cc(-c3cncnc3)ccc1C[C@@]21CC[C@H](O)[C@@H](C)C1` (stereo partly drawn) [Compound 63, (1S,3S,4S)-2″-amino-3-methyl-6′-(pyrimidin-5-yl)-3′H,5″H-dispiro[cyclohexane-1,2′-indene-1′,4″-oxazol]-5″,5″-d2-4-ol], for which the IC50 in test [1] is 1460 nM; in test [2], greater than 5000 nM; in test [3], 266 nM.
Consider `CO[C@H]1CC[C@]2(CC1)Cc1ccccc1C21COC(N)=N1` (stereo partly drawn) [Compound 64, (1r,4r)-4-methoxy-3′H,5″H-dispiro[cyclohexane-1,2′-indene-1′,4″-oxazol]-2″-amine], for which the IC50 in test [1] is greater than 5000 nM; in test [2], greater than 5000 nM; in test [3], 307 nM.
Regarding `[2H]C1([2H])OC(N)=NC12c1cc(/C(C)=N/OCC)ccc1C[C@]21CC[C@@H](OC)CC1` (stereo partly drawn) [Compound 65, (E)-1-((1r,4r)-2″-amino-4-methoxy-3′H,5″H-dispiro[cyclohexane-1,2′-indene-1′,4″-oxazol]-6′-yl-5″,5″-d2)ethan-1-one O-ethyl oxime], the IC50 in test [1], in test [2] and in test [3] was greater than 5000 nM each time.
As to `[2H]C1([2H])OC(N)=N[C@]12c1cc(-c3cnccn3)ccc1C[C@]21CC[C@@H](OC)[C@H](C)C1` [Compound 69, (1R,1′R,3R,4R)-4-methoxy-3-methyl-6′-(pyrazin-2-yl)-3′H,5″H-dispiro[cyclohexane-1,2′-indene-1′,4″-oxazol]-5″,5″-d2-2″-amine], the IC50 was 423 nM in test [1], greater than 5000 nM in test [2] and 17 nM in test [3].
Regarding `[2H]C1([2H])OC(N)=N[C@]12c1cc(-c3cncnc3C)ccc1C[C@@]21CC[C@H](OC)[C@@H](C)C1` [Compound 70, (1S,1′R,3S,4S)-4-methoxy-3-methyl-6′-(4-methylpyrimidin-5-yl)-3′H,5″H-dispiro[cyclohexane-1,2′-indene-1′,4″-oxazol]-5″,5″-d2-2″-amine], the IC50 in test [1] was 1130 nM; in test [2], greater than 5000 nM; in test [3] it was 26.6 nM.
Take `[2H]C([2H])([2H])O[C@H]1CC[C@@]2(Cc3ccc(-c4cnccn4)cc3[C@]23N=C(N)OC3([2H])[2H])C[C@@H]1C` [Compound 72, (1S,1′R,3S,4S)-4-(methoxy-d3)-3-methyl-6′-(pyrazin-2-yl)-3′H,5″H-dispiro[cyclohexane-1,2′-indene-1′,4″-oxazol]-5″,5″-d2-2″-amine]: the IC50 in test [1] was 203 nM; in test [2], greater than 5000 nM; in test [3], 3.6 nM.
Take `[2H]C([2H])([2H])O[C@@H]1CC[C@]2(Cc3ccc(-c4cccnc4)cc3[C@]23N=C(N)OC3([2H])[2H])C[C@H]1C` [Compound 80, (1R,1′R,3R,4R)-4-(methoxy-d3)-3-methyl-6′-(pyridin-3-yl)-3′H,5″H-dispiro[cyclohexane-1,2′-indene-1′,4″-oxazol]-5″,5″-d2-2″-amine]: the IC50 in test [1] is 45 nM; in test [2], 600 nM; in test [3], less than 0.16 nM.
As to `[2H]C([2H])([2H])O[C@@H]1CC[C@]2(Cc3ccc(-c4cnccn4)cc3[C@]23N=C(N)OC3([2H])[2H])C[C@H]1C` [Compound 81, (1R,1′R,3R,4R)-4-(methoxy-d3)-3-methyl-6′-(pyrazin-2-yl)-3′H,5″H-dispiro[cyclohexane-1,2′-indene-1′,4″-oxazol]-5″,5″-d2-2″-amine], the IC50 is 423 nM in test [1], greater than 5000 nM in test [2] and 17 nM in test [3].
